Active and inactive are the calls of the source.
molecular target: T1, Apoptotic protease-activating factor 1 (Homo sapiens, UniProt O14727); assay type: functional
T1 sequence (O14727 whole entry): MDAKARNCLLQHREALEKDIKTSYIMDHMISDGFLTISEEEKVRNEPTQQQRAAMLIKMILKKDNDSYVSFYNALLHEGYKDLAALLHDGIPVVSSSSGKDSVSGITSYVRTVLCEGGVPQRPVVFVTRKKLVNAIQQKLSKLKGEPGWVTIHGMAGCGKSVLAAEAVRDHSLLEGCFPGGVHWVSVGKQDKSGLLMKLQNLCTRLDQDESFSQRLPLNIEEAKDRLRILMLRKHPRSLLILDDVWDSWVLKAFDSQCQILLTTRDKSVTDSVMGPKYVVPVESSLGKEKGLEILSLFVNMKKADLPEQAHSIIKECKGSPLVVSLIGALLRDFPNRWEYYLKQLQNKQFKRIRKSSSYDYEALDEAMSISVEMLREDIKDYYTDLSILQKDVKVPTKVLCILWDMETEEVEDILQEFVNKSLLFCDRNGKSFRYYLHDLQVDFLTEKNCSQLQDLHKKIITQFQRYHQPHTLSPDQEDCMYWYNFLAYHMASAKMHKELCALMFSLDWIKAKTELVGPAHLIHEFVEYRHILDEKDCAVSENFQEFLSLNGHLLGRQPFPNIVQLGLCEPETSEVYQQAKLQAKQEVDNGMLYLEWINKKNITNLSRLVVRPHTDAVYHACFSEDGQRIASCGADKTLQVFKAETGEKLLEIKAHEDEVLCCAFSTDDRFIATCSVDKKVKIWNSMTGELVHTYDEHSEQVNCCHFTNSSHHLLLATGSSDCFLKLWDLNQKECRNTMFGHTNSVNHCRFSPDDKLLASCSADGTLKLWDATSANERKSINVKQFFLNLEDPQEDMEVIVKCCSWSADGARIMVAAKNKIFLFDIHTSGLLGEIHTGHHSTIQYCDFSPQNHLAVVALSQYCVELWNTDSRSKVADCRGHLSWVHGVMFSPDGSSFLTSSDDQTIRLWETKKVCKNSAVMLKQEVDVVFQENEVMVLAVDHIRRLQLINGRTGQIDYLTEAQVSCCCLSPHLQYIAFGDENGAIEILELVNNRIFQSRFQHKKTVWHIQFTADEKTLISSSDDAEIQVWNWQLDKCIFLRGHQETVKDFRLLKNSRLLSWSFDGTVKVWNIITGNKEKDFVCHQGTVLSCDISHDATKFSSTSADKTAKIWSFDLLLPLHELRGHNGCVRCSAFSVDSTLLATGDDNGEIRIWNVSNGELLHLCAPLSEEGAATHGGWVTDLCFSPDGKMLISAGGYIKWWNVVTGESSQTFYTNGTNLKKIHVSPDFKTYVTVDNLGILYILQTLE

Compound | IC50
Cc1cc(C)c(S(=O)(=O)/N=C2\C=C(Nc3ccc(C(=O)O)cc3)C(=O)c3ccccc32)c(C)c1 | 6.01 µM (active)
O=C(Cc1ccccc1)NC1(O)C(=O)c2ccccc2C1=O | 11 µM (active)
COC(=O)c1nc(-c2ccc3c(n2)C(=O)C(=N)C(OC)=C3O)c(N)c(-c2ccc(OC)c(OC)c2O)c1C | 3.39 µM (active)

molecular target: Platelet-derived growth factor receptor alpha (Homo sapiens, UniProt P16234); assay: Navigating the Kinome. Panel member name: PDGFRA; assay type: functional

Ki | Compound
> 2.51 µM (inactive) | CCC1CC(NS(=O)(=O)C2CC2)CC1c1ncc2cnc3[nH]ccc3n12 (configuration not stated)
> 2.51 µM (inactive) | O=C(Nc1cccc(C(F)(F)F)n1)Nc1ccnc2cc(OC(F)F)ccc12
5.01 µM (active) | O=c1[nH]c2cc(Br)cnc2[nH]1
> 2.51 µM (inactive) | O=C(Nc1cccc(C(F)(F)F)n1)Nc1ccnc2cc(Cl)ccc12

molecular target: Mitogen-activated protein kinase 8 (Homo sapiens, UniProt P45983); assay type: functional;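 further: value comes from one member of a kinome-wide kinase profiling panel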

Ki | Compound
> 5.01 µM (inactive) | CCC1CC(NS(=O)(=O)C2CC2)CC1c1ncc2cnc3[nH]ccc3n12 (configuration not stated)
> 5.01 µM (inactive) | O=C(Nc1cccc(C(F)(F)F)n1)Nc1ccnc2cc(OC(F)F)ccc12
> 5.01 µM (inactive) | O=C(Nc1cccc(C(F)(F)F)n1)Nc1ccnc2cc(Cl)ccc12

molecular target: Mitogen-activated protein kinase kinase kinase kinase 4 (Homo sapiens, UniProt O95819); assay type: functional

Ki | Compound
> 5.01 µM (inactive) | CCC1CC(NS(=O)(=O)C2CC2)CC1c1ncc2cnc3[nH]ccc3n12 (configuration not stated)
> 5.01 µM (inactive) | O=C(Nc1cccc(C(F)(F)F)n1)Nc1ccnc2cc(OC(F)F)ccc12
50.1 µM (active) | O=c1[nH]c2cc(Br)cnc2[nH]1

molecular target: Insulin-like growth factor 1 receptor (Homo sapiens, UniProt P08069); assay: Navigating the Kinome. Panel member name: IGF1R; assay type: functional
Sequence (P08069 31-736 limits assumed): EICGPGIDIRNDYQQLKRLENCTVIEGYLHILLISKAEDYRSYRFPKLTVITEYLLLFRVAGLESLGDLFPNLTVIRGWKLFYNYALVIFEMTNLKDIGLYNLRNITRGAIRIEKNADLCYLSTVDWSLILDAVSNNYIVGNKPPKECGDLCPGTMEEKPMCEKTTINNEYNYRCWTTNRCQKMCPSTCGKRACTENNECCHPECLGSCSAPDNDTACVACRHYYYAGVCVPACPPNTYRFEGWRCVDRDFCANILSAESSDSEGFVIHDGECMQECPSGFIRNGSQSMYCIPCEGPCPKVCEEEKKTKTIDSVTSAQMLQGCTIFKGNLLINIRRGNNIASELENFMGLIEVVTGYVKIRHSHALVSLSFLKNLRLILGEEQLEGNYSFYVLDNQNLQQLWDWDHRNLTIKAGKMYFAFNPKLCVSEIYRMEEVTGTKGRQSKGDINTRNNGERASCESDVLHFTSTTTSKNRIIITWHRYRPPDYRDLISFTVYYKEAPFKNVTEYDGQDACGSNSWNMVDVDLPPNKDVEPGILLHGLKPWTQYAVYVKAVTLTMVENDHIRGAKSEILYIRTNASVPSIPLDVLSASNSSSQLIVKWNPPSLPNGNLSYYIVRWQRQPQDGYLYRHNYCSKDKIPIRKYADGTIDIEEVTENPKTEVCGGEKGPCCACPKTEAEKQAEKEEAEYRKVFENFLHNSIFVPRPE
Sequence (P08069 741-1367 limits assumed): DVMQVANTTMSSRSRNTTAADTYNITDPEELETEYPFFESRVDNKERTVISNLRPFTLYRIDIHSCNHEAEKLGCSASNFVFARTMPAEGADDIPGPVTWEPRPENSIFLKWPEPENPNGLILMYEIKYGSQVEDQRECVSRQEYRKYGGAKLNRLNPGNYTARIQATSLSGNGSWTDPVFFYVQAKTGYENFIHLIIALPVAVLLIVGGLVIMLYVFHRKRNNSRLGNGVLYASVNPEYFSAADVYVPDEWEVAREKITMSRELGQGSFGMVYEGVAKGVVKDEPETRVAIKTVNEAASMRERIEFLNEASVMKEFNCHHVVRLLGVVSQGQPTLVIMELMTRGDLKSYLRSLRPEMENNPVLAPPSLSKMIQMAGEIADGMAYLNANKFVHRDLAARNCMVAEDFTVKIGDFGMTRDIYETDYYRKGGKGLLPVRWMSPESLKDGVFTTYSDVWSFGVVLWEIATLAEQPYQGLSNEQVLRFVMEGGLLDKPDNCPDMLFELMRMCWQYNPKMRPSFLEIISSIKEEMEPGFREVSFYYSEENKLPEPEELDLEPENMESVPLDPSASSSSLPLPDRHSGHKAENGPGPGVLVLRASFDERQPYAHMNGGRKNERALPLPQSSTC

Ki | Compound
> 2.51 µM (inactive) | CCC1CC(NS(=O)(=O)C2CC2)CC1c1ncc2cnc3[nH]ccc3n12 (configuration not stated)
> 2.51 µM (inactive) | O=C(Nc1cccc(C(F)(F)F)n1)Nc1ccnc2cc(OC(F)F)ccc12
> 2.51 µM (inactive) | O=C(Nc1cccc(C(F)(F)F)n1)Nc1ccnc2cc(Cl)ccc12

molecular target: Tyrosine-protein kinase Lck (Homo sapiens, UniProt P06239); assay type: functional;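 further: lck was assayed as one member of a kinase panel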

Ki | Compound
3.98 µM (active) | CCC1CC(NS(=O)(=O)C2CC2)CC1c1ncc2cnc3[nH]ccc3n12 (configuration not stated)
> 6.31 µM (inactive) | O=C(Nc1cccc(C(F)(F)F)n1)Nc1ccnc2cc(OC(F)F)ccc12
> 6.31 µM (inactive) | O=C(Nc1cccc(C(F)(F)F)n1)Nc1ccnc2cc(Cl)ccc12

molecular target: Dual specificity protein kinase CLK4 (Homo sapiens, UniProt Q9HAZ1); assay type: functional
Sequence (Q9HAZ1 whole entry): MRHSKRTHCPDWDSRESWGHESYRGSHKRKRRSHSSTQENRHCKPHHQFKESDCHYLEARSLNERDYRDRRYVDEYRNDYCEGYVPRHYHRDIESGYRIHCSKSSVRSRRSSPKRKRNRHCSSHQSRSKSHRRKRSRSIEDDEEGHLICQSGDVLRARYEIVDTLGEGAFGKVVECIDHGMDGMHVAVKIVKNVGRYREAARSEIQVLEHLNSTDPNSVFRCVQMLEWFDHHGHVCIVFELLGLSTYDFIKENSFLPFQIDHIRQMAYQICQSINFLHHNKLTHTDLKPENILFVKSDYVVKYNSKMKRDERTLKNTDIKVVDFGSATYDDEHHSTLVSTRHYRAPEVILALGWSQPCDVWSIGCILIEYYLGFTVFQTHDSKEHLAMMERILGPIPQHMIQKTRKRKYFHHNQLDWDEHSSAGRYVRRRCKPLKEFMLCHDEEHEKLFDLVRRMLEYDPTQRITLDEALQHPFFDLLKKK

Ki | Compound
> 1.58 µM (inactive) | CCC1CC(NS(=O)(=O)C2CC2)CC1c1ncc2cnc3[nH]ccc3n12 (configuration not stated)
1.26 µM (active) | O=c1[nH]c2cc(Br)cnc2[nH]1
1.26 µM (active) | O=C(Nc1cccc(C(F)(F)F)n1)Nc1ccnc2cc(Cl)ccc12

molecular target: Death-associated protein kinase 3 (Homo sapiens, UniProt O43293); assay type: functional;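 further: measured as one member of a kinome-wide profiling panel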

Compound | Ki
CCC1CC(NS(=O)(=O)C2CC2)CC1c1ncc2cnc3[nH]ccc3n12 (configuration not stated) | 0.794 µM (active)
O=C(Nc1cccc(C(F)(F)F)n1)Nc1ccnc2cc(OC(F)F)ccc12 | > 5.01 µM (inactive)
O=c1[nH]c2cc(Br)cnc2[nH]1 | 12.6 µM (active)
O=C(Nc1cccc(C(F)(F)F)n1)Nc1ccnc2cc(Cl)ccc12 | > 5.01 µM (inactive)

molecular target: Serine/threonine-protein kinase PAK 4 (Homo sapiens, UniProt O96013); assay type: functional;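 further: value obtained within a kinome profiling panel in which PAK4 was one of the panel members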
Sequence (O96013 whole entry): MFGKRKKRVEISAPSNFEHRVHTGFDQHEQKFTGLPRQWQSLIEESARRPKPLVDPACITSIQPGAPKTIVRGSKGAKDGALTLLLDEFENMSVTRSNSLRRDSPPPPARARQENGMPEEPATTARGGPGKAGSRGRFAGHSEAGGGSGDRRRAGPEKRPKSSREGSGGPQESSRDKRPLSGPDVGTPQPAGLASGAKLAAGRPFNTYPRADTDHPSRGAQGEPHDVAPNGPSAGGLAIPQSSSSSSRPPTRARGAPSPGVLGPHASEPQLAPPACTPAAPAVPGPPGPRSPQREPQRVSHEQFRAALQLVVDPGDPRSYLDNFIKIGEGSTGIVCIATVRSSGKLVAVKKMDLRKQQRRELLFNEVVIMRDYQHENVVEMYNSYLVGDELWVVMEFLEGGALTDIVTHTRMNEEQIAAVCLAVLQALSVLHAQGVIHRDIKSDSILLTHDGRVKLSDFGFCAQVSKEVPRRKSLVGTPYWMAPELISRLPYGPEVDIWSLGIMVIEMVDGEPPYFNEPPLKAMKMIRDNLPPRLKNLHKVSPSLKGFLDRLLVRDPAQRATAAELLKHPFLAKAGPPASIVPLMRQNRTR

Ki | Compound
2.51 µM (active) | CCC1CC(NS(=O)(=O)C2CC2)CC1c1ncc2cnc3[nH]ccc3n12 (configuration not stated)
> 5.01 µM (inactive) | O=C(Nc1cccc(C(F)(F)F)n1)Nc1ccnc2cc(OC(F)F)ccc12
39.8 µM (active) | O=c1[nH]c2cc(Br)cnc2[nH]1
> 5.01 µM (inactive) | O=C(Nc1cccc(C(F)(F)F)n1)Nc1ccnc2cc(Cl)ccc12

molecular target: Cyclin-dependent kinase 8 (Homo sapiens, UniProt P49336); assay: Navigating the Kinome. Panel member name: CDK8; assay type: functional
Sequence (P49336 whole entry): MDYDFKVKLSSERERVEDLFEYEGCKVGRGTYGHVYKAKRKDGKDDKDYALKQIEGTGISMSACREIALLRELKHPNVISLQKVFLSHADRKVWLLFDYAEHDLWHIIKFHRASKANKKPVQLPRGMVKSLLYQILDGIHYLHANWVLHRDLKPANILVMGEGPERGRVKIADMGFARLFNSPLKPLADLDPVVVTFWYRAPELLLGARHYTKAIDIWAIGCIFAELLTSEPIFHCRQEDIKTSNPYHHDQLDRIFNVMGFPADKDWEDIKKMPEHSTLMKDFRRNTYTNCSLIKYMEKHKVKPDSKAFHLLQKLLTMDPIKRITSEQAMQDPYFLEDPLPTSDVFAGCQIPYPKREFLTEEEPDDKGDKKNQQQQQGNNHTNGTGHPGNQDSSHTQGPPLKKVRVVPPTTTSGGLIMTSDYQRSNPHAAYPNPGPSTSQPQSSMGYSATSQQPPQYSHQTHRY

Ki | Compound
> 3.16 µM (inactive) | CCC1CC(NS(=O)(=O)C2CC2)CC1c1ncc2cnc3[nH]ccc3n12 (configuration not stated)
> 3.98 µM (inactive) | O=C(Nc1cccc(C(F)(F)F)n1)Nc1ccnc2cc(OC(F)F)ccc12
7.94 µM (active) | O=c1[nH]c2cc(Br)cnc2[nH]1
> 3.98 µM (inactive) | O=C(Nc1cccc(C(F)(F)F)n1)Nc1ccnc2cc(Cl)ccc12

molecular target: Activated CDC42 kinase 1 (Homo sapiens, UniProt Q07912); assay: Navigating the Kinome. Panel member name: ACK1; assay type: functional
Sequence (Q07912 whole entry): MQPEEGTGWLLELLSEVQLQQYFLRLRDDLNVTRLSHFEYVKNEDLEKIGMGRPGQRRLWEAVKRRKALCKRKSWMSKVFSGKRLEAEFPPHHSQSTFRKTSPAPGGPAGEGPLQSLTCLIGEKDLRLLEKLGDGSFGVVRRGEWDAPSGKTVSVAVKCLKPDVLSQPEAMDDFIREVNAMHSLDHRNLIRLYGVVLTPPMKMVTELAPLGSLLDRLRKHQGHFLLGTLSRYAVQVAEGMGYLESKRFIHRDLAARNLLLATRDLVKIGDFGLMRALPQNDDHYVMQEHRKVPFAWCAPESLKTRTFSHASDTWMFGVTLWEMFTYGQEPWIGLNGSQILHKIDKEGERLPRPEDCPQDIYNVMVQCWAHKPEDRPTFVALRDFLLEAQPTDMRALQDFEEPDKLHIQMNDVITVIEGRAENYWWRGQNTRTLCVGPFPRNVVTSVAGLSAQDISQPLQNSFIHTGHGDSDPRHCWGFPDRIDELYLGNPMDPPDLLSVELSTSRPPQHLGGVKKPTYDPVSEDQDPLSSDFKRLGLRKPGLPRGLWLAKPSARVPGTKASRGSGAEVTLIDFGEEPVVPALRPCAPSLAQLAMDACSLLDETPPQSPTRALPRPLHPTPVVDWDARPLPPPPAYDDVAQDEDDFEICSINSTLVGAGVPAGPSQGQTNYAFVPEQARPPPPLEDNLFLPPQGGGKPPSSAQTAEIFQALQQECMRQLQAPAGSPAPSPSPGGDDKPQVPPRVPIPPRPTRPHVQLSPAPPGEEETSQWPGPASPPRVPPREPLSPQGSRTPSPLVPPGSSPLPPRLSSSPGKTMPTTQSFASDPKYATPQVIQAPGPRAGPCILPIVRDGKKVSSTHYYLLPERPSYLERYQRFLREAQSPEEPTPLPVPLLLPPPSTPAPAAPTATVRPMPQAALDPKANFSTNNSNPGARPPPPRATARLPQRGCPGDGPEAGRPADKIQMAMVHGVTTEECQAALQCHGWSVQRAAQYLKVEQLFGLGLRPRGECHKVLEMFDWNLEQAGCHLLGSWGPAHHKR

Ki | Compound
1.58 µM (active) | CCC1CC(NS(=O)(=O)C2CC2)CC1c1ncc2cnc3[nH]ccc3n12 (configuration not stated)
> 3.98 µM (inactive) | O=C(Nc1cccc(C(F)(F)F)n1)Nc1ccnc2cc(OC(F)F)ccc12
50.1 µM (active) | O=c1[nH]c2cc(Br)cnc2[nH]1
> 3.98 µM (inactive) | O=C(Nc1cccc(C(F)(F)F)n1)Nc1ccnc2cc(Cl)ccc12

molecular target: Tyrosine-protein kinase BTK (Homo sapiens, UniProt Q06187); assay type: functional

Ki | Compound
> 6.31 µM (inactive) | CCC1CC(NS(=O)(=O)C2CC2)CC1c1ncc2cnc3[nH]ccc3n12 (configuration not stated)
> 6.31 µM (inactive) | O=C(Nc1cccc(C(F)(F)F)n1)Nc1ccnc2cc(OC(F)F)ccc12
> 6.31 µM (inactive) | O=C(Nc1cccc(C(F)(F)F)n1)Nc1ccnc2cc(Cl)ccc12

molecular target: T2, Serine/threonine-protein kinase D3 (Homo sapiens, UniProt O94806); assay type: functional;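 further: determined within a kinase panel screen, with PRKCN as the panel member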
T2 sequence (O94806 whole entry): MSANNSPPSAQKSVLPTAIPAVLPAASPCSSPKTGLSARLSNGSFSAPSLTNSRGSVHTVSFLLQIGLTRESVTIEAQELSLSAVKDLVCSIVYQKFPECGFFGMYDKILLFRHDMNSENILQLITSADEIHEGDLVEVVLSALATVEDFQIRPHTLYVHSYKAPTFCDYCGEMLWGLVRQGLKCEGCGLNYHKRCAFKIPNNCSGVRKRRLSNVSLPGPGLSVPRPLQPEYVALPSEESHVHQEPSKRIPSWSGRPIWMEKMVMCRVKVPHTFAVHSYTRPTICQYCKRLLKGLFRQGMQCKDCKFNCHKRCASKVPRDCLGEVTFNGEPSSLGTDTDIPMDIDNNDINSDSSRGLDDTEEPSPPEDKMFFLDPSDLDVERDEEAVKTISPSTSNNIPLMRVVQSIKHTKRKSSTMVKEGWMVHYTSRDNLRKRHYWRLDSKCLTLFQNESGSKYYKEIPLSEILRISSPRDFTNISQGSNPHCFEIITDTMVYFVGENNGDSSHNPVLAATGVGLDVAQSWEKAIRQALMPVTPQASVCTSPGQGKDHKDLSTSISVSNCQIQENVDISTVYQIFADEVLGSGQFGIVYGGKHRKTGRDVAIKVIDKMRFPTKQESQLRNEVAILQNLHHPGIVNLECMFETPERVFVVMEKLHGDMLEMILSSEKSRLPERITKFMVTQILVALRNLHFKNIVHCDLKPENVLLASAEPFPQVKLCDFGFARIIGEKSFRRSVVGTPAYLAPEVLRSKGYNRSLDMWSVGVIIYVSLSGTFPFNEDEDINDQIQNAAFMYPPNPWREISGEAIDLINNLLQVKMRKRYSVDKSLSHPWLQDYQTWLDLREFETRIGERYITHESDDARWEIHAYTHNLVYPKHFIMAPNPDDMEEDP

Ki | Compound
> 3.98 µM (inactive) | CCC1CC(NS(=O)(=O)C2CC2)CC1c1ncc2cnc3[nH]ccc3n12 (configuration not stated)
> 3.98 µM (inactive) | O=C(Nc1cccc(C(F)(F)F)n1)Nc1ccnc2cc(OC(F)F)ccc12
20 µM (active) | O=c1[nH]c2cc(Br)cnc2[nH]1
> 3.98 µM (inactive) | O=C(Nc1cccc(C(F)(F)F)n1)Nc1ccnc2cc(Cl)ccc12

molecular target: Serine/threonine-protein kinase pim-1 (Homo sapiens, UniProt P11309); assay type: functional
Sequence (P11309 whole entry): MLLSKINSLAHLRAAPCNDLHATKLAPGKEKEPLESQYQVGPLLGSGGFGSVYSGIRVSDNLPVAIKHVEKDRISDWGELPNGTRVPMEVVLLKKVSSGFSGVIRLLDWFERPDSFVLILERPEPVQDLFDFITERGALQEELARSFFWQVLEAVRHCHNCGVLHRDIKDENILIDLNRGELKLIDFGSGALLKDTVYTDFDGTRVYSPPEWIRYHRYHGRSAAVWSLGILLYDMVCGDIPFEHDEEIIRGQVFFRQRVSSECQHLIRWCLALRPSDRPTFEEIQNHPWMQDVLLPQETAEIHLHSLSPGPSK

Ki | Compound
> 6.31 µM (inactive) | CCC1CC(NS(=O)(=O)C2CC2)CC1c1ncc2cnc3[nH]ccc3n12 (configuration not stated)
> 6.31 µM (inactive) | O=C(Nc1cccc(C(F)(F)F)n1)Nc1ccnc2cc(OC(F)F)ccc12
25.1 µM (active) | O=c1[nH]c2cc(Br)cnc2[nH]1
> 5.01 µM (inactive) | O=C(Nc1cccc(C(F)(F)F)n1)Nc1ccnc2cc(Cl)ccc12

molecular target: Dual specificity tyrosine-phosphorylation-regulated kinase 1B (Homo sapiens, UniProt Q9Y463); assay: Navigating the Kinome. Panel member name: DYRK1B; assay type: functional
Sequence (Q9Y463 whole entry): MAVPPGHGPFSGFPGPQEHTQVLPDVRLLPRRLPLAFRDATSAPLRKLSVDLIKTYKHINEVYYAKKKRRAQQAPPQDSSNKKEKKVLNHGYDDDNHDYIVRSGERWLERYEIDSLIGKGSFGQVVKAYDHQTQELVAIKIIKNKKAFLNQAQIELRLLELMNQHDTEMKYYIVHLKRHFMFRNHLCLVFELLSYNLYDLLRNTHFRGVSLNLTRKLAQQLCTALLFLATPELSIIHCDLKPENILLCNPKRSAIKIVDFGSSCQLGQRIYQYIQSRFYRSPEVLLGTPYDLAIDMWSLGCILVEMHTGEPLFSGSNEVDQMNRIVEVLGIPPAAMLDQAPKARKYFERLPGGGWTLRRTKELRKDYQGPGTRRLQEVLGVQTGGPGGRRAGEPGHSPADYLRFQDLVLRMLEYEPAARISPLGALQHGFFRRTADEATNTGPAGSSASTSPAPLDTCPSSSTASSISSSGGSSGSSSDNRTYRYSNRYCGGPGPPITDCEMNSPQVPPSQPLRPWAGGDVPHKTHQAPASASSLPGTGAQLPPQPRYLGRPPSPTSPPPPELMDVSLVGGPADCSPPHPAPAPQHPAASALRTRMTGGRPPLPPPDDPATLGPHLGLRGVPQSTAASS

Ki | Compound
> 2.51 µM (inactive) | CCC1CC(NS(=O)(=O)C2CC2)CC1c1ncc2cnc3[nH]ccc3n12 (configuration not stated)
> 2.51 µM (inactive) | O=C(Nc1cccc(C(F)(F)F)n1)Nc1ccnc2cc(OC(F)F)ccc12
10 µM (active) | O=c1[nH]c2cc(Br)cnc2[nH]1
> 2.51 µM (inactive) | O=C(Nc1cccc(C(F)(F)F)n1)Nc1ccnc2cc(Cl)ccc12

molecular target: 5'-AMP-activated protein kinase catalytic subunit alpha-1 (Homo sapiens, UniProt Q13131); assay type: functional

Ki | Compound
2 µM (active) | CCC1CC(NS(=O)(=O)C2CC2)CC1c1ncc2cnc3[nH]ccc3n12 (configuration not stated)
> 3.16 µM (inactive) | O=C(Nc1cccc(C(F)(F)F)n1)Nc1ccnc2cc(OC(F)F)ccc12
25.1 µM (active) | O=c1[nH]c2cc(Br)cnc2[nH]1
> 3.16 µM (inactive) | O=C(Nc1cccc(C(F)(F)F)n1)Nc1ccnc2cc(Cl)ccc12

From ChEMBL document CHEMBL1201862, “PubChem BioAssay data set” (2004)
